Tests used:
AHR = biological target: T1, AHR (UniProt P35869); assay: DRE-Luciferase Reporter Assay (Alternate Method) (Example 1B); assay type: cell-based, murine or human; settings: cell line and AHR activating ligand not specified
T1 construct: IC50
T1 sequence (P35869 1-848): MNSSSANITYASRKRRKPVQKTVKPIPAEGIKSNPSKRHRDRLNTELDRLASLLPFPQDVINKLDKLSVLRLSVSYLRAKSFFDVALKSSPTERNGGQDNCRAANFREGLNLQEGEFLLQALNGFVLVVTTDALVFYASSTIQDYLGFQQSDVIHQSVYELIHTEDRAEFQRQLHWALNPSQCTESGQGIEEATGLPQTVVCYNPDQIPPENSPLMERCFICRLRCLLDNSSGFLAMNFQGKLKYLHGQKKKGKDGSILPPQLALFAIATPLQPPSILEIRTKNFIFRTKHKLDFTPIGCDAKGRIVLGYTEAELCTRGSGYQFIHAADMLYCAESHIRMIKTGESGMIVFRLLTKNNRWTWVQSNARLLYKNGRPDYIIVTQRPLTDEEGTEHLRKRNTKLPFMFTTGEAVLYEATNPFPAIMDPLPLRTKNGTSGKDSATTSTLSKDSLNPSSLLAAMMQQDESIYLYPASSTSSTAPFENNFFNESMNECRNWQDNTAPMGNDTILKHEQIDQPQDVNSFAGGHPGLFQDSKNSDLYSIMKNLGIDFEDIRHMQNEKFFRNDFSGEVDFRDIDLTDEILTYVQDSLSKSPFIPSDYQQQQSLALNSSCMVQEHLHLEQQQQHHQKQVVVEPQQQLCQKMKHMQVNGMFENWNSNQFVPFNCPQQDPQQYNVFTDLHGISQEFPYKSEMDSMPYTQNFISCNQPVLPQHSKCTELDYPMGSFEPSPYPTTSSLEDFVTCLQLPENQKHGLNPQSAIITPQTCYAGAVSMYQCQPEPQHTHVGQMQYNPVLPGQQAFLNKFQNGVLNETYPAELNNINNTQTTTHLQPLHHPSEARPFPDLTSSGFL

[1] = In Vitro Mouse liver S9 Metabolic Stability Assay (Example 1D); assay type: in vitro ADME; settings: CD-1 mouse liver S9, 1 μM compound, 1 mg/mL S9 protein, 37° C., NADPH regenerating system, UDPGA, PAPS
Experimental: CD-1 mouse liver S9 were purchased from Corning or XenoTech LLC or BioreclamationIVT, LLC or WuXi prepared. The cells were stored at −80° C. in a freezer before use. β-Nicotinamide adenine dinucleotide phosphate (NADP), Glucose 6-phosphate (G6P), Glucose 6-phosphate dehydrogenase from yeast (G6PDH), Uridine 5′-diphophoglucuronic acid trisodium salt (UDPGA) and Adenosine 3′-phosphate 5′-phosphosulfate lithium salt hydrate (PAPS) were available commercially from Sigma.
Compounds were diluted in DMSO to make 10 mM stock solution. 5 μL of this stock solution (10 mM, DMSO) was diluted with 45 μL DMSO and 450 μL 50% Methanol/Water to make intermediate stock solution (100 μM, 45% MeOH, 10% DMSO). 50 μL of intermediate stock solution was diluted with 450 μL 100 mM phosphate buffer to make a final stock solution (10 μM, 4.5% MeOH, 1% DMSO). 10 uL of final stock solution was added to 90 uL liver S9 system (final concentration of 1 μM, 0.45% MeOH, 0.1% DMSO).
Test compounds were incubated at 37° C. with liver S9 (pooled from multiple donors) at 1 μM in the presence of a NADPH regenerating system, UDPGA, and PAPS at 1 mg/mL S9 protein. Time samples (0 and 60 minutes) were removed and immediately mixed with cold acetonitrile containing internal standard (IS). Samples were analyzed by LC/MS/MS and disappearance of test compounds were assessed based on peak area ratios of analyte /IS (no standard curve). All samples were injected and analyzed using LC-MS/MS. The analyte/internal standard peak area ratios were converted to percentage remaining (% Remaining) with the following equation: % Remaining at 60 min=(Peak area ratio of analyte to IS at 60 min/Peak area ratio of analyte to IS at t=0)×100%. Table 5. Mouse Stability Data According to Example 1D.

[2] = Mouse Pharmacokinetic Study (Example 1C); assay type: in vivo; settings: mouse, plasma, CD-1 mice; for Vd: read-out: Vdss
Experimental: Formulations of compounds set forth in Table 4 were administered intravenously or orally via gavage to CD-1 mice. Typically, at 0.167, 0.5, 1, 2, 4, 6, 12, and 24 hours post-dose, blood was collected and processed to plasma by centrifugation and stored at −80° C. until analysis.
Internal standard was added to each sample prior to protein precipitation with acetonitrile. The precipitates were filtered through a Phree phospholipid removal filter plate and the samples were analyzed by LC/MS/MS. A standard curve was prepared in plasma from typically from 1.0 ng/mL to 3000 ng/mL and processed in the same manner as the samples. Sample analysis was typically performed on a suitable LC/MS/MS system fitted with an analytical UPLC column and compounds eluted from the analytical column with a gradient from 30-95% 0.1% formic acid (v/v) in ACN: 0.1% formic acid (v/v) in water. Mass spectrometric detection of test compound and the internal standard was performed by MRM in positive mode. The pharmacokinetics of each compound were analyzed by Phoenix WinNonlin software (Pharsight, St. Louis, Mo.) via non-compartmental analysis.

Row | IC50 (AHR) [µM] | Mouse S9 Stability: % Remaining After 60 Minutes [1] [%] | bioavailability ([2]; po, 30 mg/kg) [%] | AUC(0-inf) ([2]; iv, 3 mg/kg) [ng·h/mL] | AUC(0-t) ([2]; iv, 3 mg/kg) [ng·h/mL] | clearance ([2]; iv, 3 mg/kg) [mL/min/kg] | half-life ([2]; iv, 3 mg/kg) [h] | Vd ([2]; iv, 3 mg/kg) [L/kg] | AUC(0-inf) ([2]; po, 30 mg/kg) [ng·h/mL] | AUC(0-t) ([2]; po, 30 mg/kg) [ng·h/mL] | Cmax ([2]; po, 30 mg/kg) [ng/mL] | Tmax ([2]; po, 30 mg/kg) [h] | half-life ([2]; po, 30 mg/kg) [h] | Structure (SMILES)
1 | < 0.5 | 2 | – | – | – | – | – | – | – | – | – | – | – | CC(C)(O)c1cnn2c(NCCc3c[nH]c4ccccc34)cc(-c3cncc(F)c3)nc12 [I-177, 2-[5-(5-Fluoro-3-pyridyl)-7-[2-(1H-indol-3-yl)ethylamino]pyrazolo[1,5-a]pyrimidin-3-yl]propan-2-ol]
2 | < 0.5 | 2 | – | – | – | – | – | – | – | – | – | – | – | Cc1[nH]c2c(F)cccc2c1CCNc1cc(-c2cncc(F)c2)nc2c(C(F)(F)F)cnn12 [I-235, N-[2-(7-Fluoro-2-methyl-1H-indol-3-yl)ethyl]-5-(5-fluoro-3-pyridyl)-3-(trifluoromethyl)pyrazolo[1,5-a]pyrimidin-7-amine]
3 | < 0.5 | 1 | – | – | – | – | – | – | – | – | – | – | – | CC(C)c1cnn2c(NCCc3c[nH]c4cccnc34)nc(-c3cncc(F)c3)nc12 [I-101, 2-(5-Fluoro-3-pyridyl)-8-isopropyl-N-[2-(1H-pyrrolo[3,2-b]pyridin-3-yl)ethyl]pyrazolo[1,5-a][1,3,5]triazin-4-amine]
4 | < 0.5 | 2 | – | – | – | – | – | – | – | – | – | – | – | CC(C)c1cnn2c(NCCc3c[nH]c4ccccc34)nc(-c3cncc(F)c3)nc12 [I-16, 2-(5-Fluoro-3-pyridyl)-N-[2-(1H-indol-3-yl)ethyl]-8-isopropyl-pyrazolo[1,5-a][1,3,5]triazin-4-amine]
5 | < 0.5 | 1 | – | – | – | – | – | – | – | – | – | – | – | NC(=O)c1cnn2c(NCCc3c[nH]c4ccccc34)cc(-c3cncc(F)c3)nc12 [I-78, 5-(5-Fluoro-3-pyridyl)-7-[2-(1H-indol-3-yl)ethylamino]pyrazolo[1,5-a]pyrimidine-3-carboxamide]
6 | < 0.5 | – | 100 | 1650 | 1460 | 30 | 8.8 | 17 | 14700 | 13700 | 1870 | 1 | 6.1 | Fc1cncc(-c2nc(N[C@@H]3CCc4[nH]c5ccccc5c4C3)c3ncccc3n2)c1 [I-126, (3R)—N-[2-(5-Fluoro-3-pyridyl)pyrido[3,2-d]pyrimidin-4-yl]-2,3,4,9-tetrahydro-1H-carbazol-3-amine]
7 | < 0.5 | 2 | – | – | – | – | – | – | – | – | – | – | – | CC(C)c1cnn2c(NCCc3c[nH]c4ccccc34)cc(-c3cncc(C#N)c3)nc12 [I-81, 5-[7-[2-(1H-indol-3-yl)ethylamino]-3-isopropyl-pyrazolo[1,5-a]pyrimidin-5-yl]pyridine-3-carbonitrile]
8 | < 0.5 | – | 53 | 1620 | 1340 | 31 | 14 | 22 | 7530 | 7030 | 1040 | 2 | 6.4 | CN(C)c1cnn2c(N[C@@H]3CCc4[nH]c5ccccc5c4C3)nc(-c3cncc(F)c3)nc12 [I-129, 2-(5-Fluoro-3-pyridyl)-N8,N8-dimethyl-N4-[(3R)-2,3,4,9-tetrahydro-1H-carbazol-3-yl]pyrazolo[1,5-a][1,3,5]triazine-4,8-diamine]
9 | < 0.5 | 54 | – | – | – | – | – | – | – | – | – | – | – | CC(C)n1cnc2c(N[C@@H]3CCc4[nH]c5ccccc5c4C3)nc(-c3cncc(F)c3)nc21 [I-162, (3R)—N-[2-(5-Fluoro-3-pyridyl)-9-isopropyl-purin-6-yl]-2,3,4,9-tetrahydro-1H-carbazol-3-amine]
10 | – | 0 | – | – | – | – | – | – | – | – | – | – | – | CC(C)c1cnn2c(N[C@H](C)Cc3c[nH]c4ccccc34)cc(-c3cncc(F)c3)nc12 [I-98b]
11 | < 0.5 | – | 3 | 842 | 825 | 59 | 1.2 | 4.7 | 249 | 237 | 82 | 0.5 | 1.2 | Cc1cnn2c(N[C@H]3CCc4[nH]ccc4C3)nc(-c3cncc(F)c3)nc12 [I-259a, 2-(5-fluoro-3-pyridyl)-8-methyl-N-[(5S)-4,5,6,7-tetrahydro-1H-indol-5-yl]pyrazolo[1,5-a][1,3,5]triazin-4-amine]
12 | < 0.5 | – | 28 | 1350 | 1220 | 37 | 11.2 | 16.6 | 3830 | 3630 | 476 | 2 | 5.9 | CC(C)c1cnn2c(N[C@@H]3CCc4[nH]ccc4C3)nc(-c3cncc(F)c3)nc12 [I-137b, 2-(5-fluoro-3-pyridyl)-8-isopropyl-N-[(5R)-4,5,6,7-tetrahydro-1H-indol-5-yl]pyrazolo[1,5-a][1,3,5]triazin-4-amine]
13 | < 0.5 | 0 | – | – | – | – | – | – | – | – | – | – | – | Cc1cnn2c(NCCc3c[nH]c4ccccc34)nc(-c3cncc(F)c3)nc12 [I-164, 2-(5-Fluoro-3-pyridyl)-N-[2-(1H-indol-3-yl)ethyl]-8-methyl-pyrazolo[1,5-a][1,3,5]triazin-4-amine]
14 | < 0.5 | – | 53 | 1270 | 1220 | 39 | 2.6 | 7.5 | 6690 | 6620 | 936 | 2 | 3.5 | N#Cc1cnn2c(N[C@@H]3CCc4[nH]c5ccccc5c4C3)nc(-c3cncc(F)c3)nc12 [I-130, 2-(5-Fluoro-3-pyridyl)-4-[[(3R)-2,3,4,9-tetrahydro-1H-carbazol-3-yl]amino]pyrazolo[1,5-a][1,3,5]triazine-8-carbonitrile]
15 | < 0.5 | – | 19 | 2010 | 1920 | 25 | 8.2 | 6.6 | 3840 | 3780 | 953 | 0.5 | 3.5 | CC(C)c1cnn2c(N[C@H]3CCc4[nH]ccc4C3)nc(-c3cncc(F)c3)nc12 [I-137a, 2-(5-fluoro-3-pyridyl)-8-isopropyl-N-[(5S)-4,5,6,7-tetrahydro-1H-indol-5-yl]pyrazolo[1,5-a][1,3,5]triazin-4-amine]
16 | – | – | 3 | 368 | 364 | 136 | 0.6 | 4.9 | 121 | 107 | 41 | 1 | 1.9 | C[C@H](O)c1cnn2c(N[C@@H]3CCc4[nH]c5ccccc5c4C3)nc(-c3cncc(F)c3)nc12 [I-118]

From patent publication US11358969B2, “Indole AHR inhibitors and uses thereof” (Ikena Oncology, Inc., priority 2017, dated 2022)
